Assay results as given in ChEMBL document CHEMBL1149957, “MALONIC ACID DERIVATIVES AS SIALYL LEWIS X MIMETICS” (Bioorg Med Chem Lett, 1997).

Columns and labels:
HL-60 [1] = test: Tested for the inhibition of HL60 cell adhesion to recombinant P-selectin-IgG fusion protein measured by cell culture assay.; assay type: functional, cell-based; conditions: Homo sapiens
HL-60 [2] = test: Tested for the inhibition of HL60 cell adhesion to recombinant E-selectin-IgG fusion protein measured by cell culture assay.; assay type: functional, cell-based; conditions: Homo sapiens
Rattus norvegicus [3] = test: Tested for the inhibition of leukocyte adhesion in rat mesenteric venules in vivo at a dose of 10 mg/kg measured by intravital microscopy.; assay type: functional
Rattus norvegicus [4] = test: Tested for the inhibition of leukocyte adhesion in rat mesenteric venules in vivo at a dose of 1 mg/kg measured by intravital microscopy.; assay type: functional
Rattus norvegicus [5] = test: Tested for the inhibition of leukocyte adhesion in rat mesenteric venules in vivo at a dose of 3 mg/kg measured by intravital microscopy.; assay type: functional

Row | SMILES | IC50 (HL-60 [1]) [mM] | IC50 (HL-60 [2]) [mM] | inhibition in vivo at 10 mg/kg (Rattus norvegicus [3]) [%] | inhibition in vivo at 1 mg/kg (Rattus norvegicus [4]) [%] | inhibition in vivo at 3 mg/kg (Rattus norvegicus [5]) [%]
1 | CC1OC(OC2CCCCC2OCCCCCCCCCCC(C(=O)O)C(=O)O)C(O)C(O)C1O (configuration not stated) | > 5 | > 5 | – | – | –
2 | CC1OC(OC2CCCCC2OC(=O)NCCCC(C(=O)O)C(=O)O)C(O)C(O)C1O (configuration not stated) | 0.7 | 1 | 85 | 54 | 44
3 | CC1OC(OC2CCCCC2OCCCC(C(=O)O)C(=O)O)C(O)C(O)C1O (configuration not stated) | > 5 | > 5 | – | – | –
4 | CC1OC(OC2CCCCC2OC(=O)NCCC(C(=O)O)C(=O)O)C(O)C(O)C1O (configuration not stated) | 3.5 | 3.4 | 58 | – | –
5 | CC1OC(OC2CCCCC2OCCCCCC(C(=O)O)C(=O)O)C(O)C(O)C1O (configuration not stated) | > 5 | > 5 | – | – | –
6 | CC1OC(OC2CCCCC2OC(=O)NCCCCC(C(=O)O)C(=O)O)C(O)C(O)C1O (configuration not stated) | 4.5 | 4 | – | – | –
7 | CC(=O)N[C@H]1[C@H]([C@@H](O)[C@@H](O)CO)O[C@@](O[C@@H]2[C@H](O)[C@H](O[C@H]3[C@H](O[C@@H]4O[C@@H](C)[C@@H](O)[C@H](O)[C@@H]4O)[C@H](NC(C)=O)C(O)O[C@H]3CO)O[C@@H](CO)[C@@H]2O)(C(=O)O)C[C@H]1O (some centres not stated) | 3 | 1.5 | – | – | –
8 | CC1OC(OC2CCCCC2OCCCCC(C(=O)O)C(=O)O)C(O)C(O)C1O (configuration not stated) | > 5 | > 5 | – | – | –

The next lines start with results.

Row | IC50 (HL-60 [1]) [mM] | IC50 (HL-60 [2]) [mM] | SMILES | inhibition in vivo at 10 mg/kg (Rattus norvegicus [3]) [%] | inhibition in vivo at 1 mg/kg (Rattus norvegicus [4]) [%] | inhibition in vivo at 3 mg/kg (Rattus norvegicus [5]) [%]
9 | > 5 | > 5 | CC1OC(OC2CCCCC2OCCCCCCC(C(=O)O)C(=O)O)C(O)C(O)C1O (configuration not stated) | – | – | –
10 | > 5 | > 5 | CC1OC(OC2CCCCC2OCCCCCCCCC(C(=O)O)C(=O)O)C(O)C(O)C1O (configuration not stated) | – | – | –
11 | > 5 | > 5 | CC1OC(OC2CCCCC2OCCCCCCCC(C(=O)O)C(=O)O)C(O)C(O)C1O (configuration not stated) | – | – | –
12 | 3.6 | 4.8 | CC1OC(OC2C(OCCCCC(C(=O)O)C(=O)O)CCOC2COCCCCc2ccccc2)C(O)C(O)C1O (configuration not stated) | – | – | 62
13 | 1.2 | 2.6 | CC1OC(OC2C(OCCCCCC(C(=O)O)C(=O)O)CCOC2COCCCCc2ccccc2)C(O)C(O)C1O (configuration not stated) | – | – | 65
